Measured values published in publication PMC11058275, “Targeted potent antimicrobial and antitumor oxygen-heterocyclic-based pyran analogues: synthesis and computational studies” (Scientific Reports, 2024).
Like-named read-outs stand apart in the source and are kept apart here.

Experiments:
[1] = tested on: Klebsiella pneumonia (ATCC 13883); assay: Agar diffusion antibacterial screening (inhibition zone); assay type: cell-based; settings: Klebsiella pneumoniae, ATCC13883, K. pneumonia, 1 mg/mL, Mueller–Hinton agar, read-out: Diameter of inhibition zone
Procedure: (§1) The antibacterial activity of β-enamionitriles (4a-q) was screened using Mueller–Hinton agar medium for bacteria in an agar diffusion methodology. Ciprofloxacin (1 mg/mL) was the reference antibiotic drug used in the analysis of collections that included four gram-positive species of multi drug resistant pathogenic bacteria: Staphylococcus aureus (MRSA) (ATCC 6539), Staphylococcus aureus (ATCC 6538), Bacillus cereus (ATCC 10987), Bacillus subtilis (ATCC 6633), and two gram-negative species of multi drug resistant pathogenic bacteria Klebsiella pneumonia (ATCC 13883) and Escherichia coli (ATCC 8739). […] Using a 1 mg/mL concentration of compounds (4a-q), the minimum zone of inhibition (IZ, the area around the antimicrobial agent where bacterial growth is prevented) was established in mm ± standard deviation beyond the well diameter (6 mm). […] The synthetic compound's inhibitory effects on evaluation against these organisms are depicted in Fig. 9 and Table 1.
(§2) Compound 4a-q was screened for its in vitro antimicrobial activities against pathogenic bacteria species using the standard antibiotics Ampicillin, Gentamycin and Ketoconazole as reference drugs as reported previously. The minimum inhibitory concentration (MIC) was determined as previously reported. The antimicrobial activities were performed at the Regional Centre for Mycology & Biotechnology (RCMP), Al-Azhar University.

[2] = tested on: Staphylococcus aureus (ATCC 6538); assay: as above; assay type: cell-based; settings: ATCC6538, S. aureus, 1 mg/mL, Mueller–Hinton agar, read-out: Diameter of inhibition zone
Procedure: as §1, §2

[3] = tested on: Staphylococcus aureus (MRSA) (ATCC 6539); assay: as above; assay type: cell-based; settings: read-out: Diameter of inhibition zone
Procedure: as §1, §2

[4] = tested on: Bacillus subtilis (ATCC 6633); assay: as above; assay type: cell-based; settings: ATCC6633, B. subtilis, 1 mg/mL, Mueller–Hinton agar, read-out: Diameter of inhibition zone
Procedure: as §1, §2

[5] = tested on: Bacillus cereus (ATCC 10987); assay: as above; assay type: cell-based; settings: ATCC10987, B. cereus, 1 mg/mL, Mueller–Hinton agar, read-out: Diameter of inhibition zone
Procedure: as §1, §2

[6] = tested on: Escherichia coli (ATCC 8739); assay: as above; assay type: cell-based; settings: ATCC8739, E. coli, 1 mg/mL, Mueller–Hinton agar, read-out: Diameter of inhibition zone
Procedure: as §1, §2

[7] = tested on: WI-38 (human diploid fibroblasts); assay: MTT cytotoxicity assay, normal cells; assay type: cell-based; settings: read-out: IC50 Normotoxicity WI-38
Excerpt: (§3) The antiproliferative activity of the newly synthesized 1H-benzo[f]chromenes derivatives (4a-q) was examined in three human cancer cell lines: MCF-7 (breast cancer), HCT-116 (human colon cancer), and HepG-2 (hepatocellular carcinoma), as well as the two normal cell lines, HFL-1 (human foetal lung) and WI-38 (human diploid fibroblasts), using the 3-(4,5-dimethylthiazol-2-yl)-2,5-diphenyl tetrazolium bromide (MTT) colorimetric assay[56].
(§4) Compounds 4a-q was initially evaluated for in vitro antitumor activity against three different human cell lines: MCF-7, HCT-116 and HepG-2. In-vitro cytotoxicity evaluation was performed at the Regional Center for Mycology & Biotechnology (RCMP), Al-Azhar University under different concentrations (50, 25, 12.5, 6.25, 3.125, 1.56 and 0 µg/mL); vinblastine and doxorubicin are used as reference cytotoxic compounds.

[8] = tested on: HFL-1 (human foetal lung); assay: MTT cytotoxicity assay, normal cells; assay type: cell-based; settings: read-out: IC50 Normotoxicity HFL-1
Excerpt: as §3, §4

[9] = tested on: HepG-2 (hepatocellular carcinoma); assay: MTT cytotoxicity assay; assay type: cell-based; settings: Homo sapiens
Excerpt: as §3, §4

[10] = tested on: HCT-116 (human colon cancer); assay: MTT cytotoxicity assay; assay type: cell-based
Excerpt: as §3, §4

[11] = tested on: MCF-7 (breast cancer); assay: MTT cytotoxicity assay; settings: Homo sapiens
Excerpt: as §3, §4

[12] = WI-38 normal cells, MTT, 24-h incubation, mean ± standard error
[13] = HFL1, HFL-1 normal cells, MTT, 24-h incubation, mean ± standard error
[14] = HepG2, MTT, 24-h incubation, mean ± standard error, read-out: IC50 Cancerotoxicity HepG-2
[15] = MTT, 24-h incubation, mean ± standard error, read-out: IC50 Cancerotoxicity HCT-116
[16] = MCF7, 24 h, read-out: IC50 Cancerotoxicity MCF-7
[17] = HepG2, given in µg/mL, read-out: IC50 HepG-2
[18] = given in µg/mL, read-out: IC50 HCT-116

Row | Compound | melting point [°C] | zone of inhibition at 1000 µg/mL [1] [mm] | zone of inhibition at 1000 µg/mL [2] [mm] | zone of inhibition at 1000 µg/mL [3] [mm] | zone of inhibition at 1000 µg/mL [4] [mm] | zone of inhibition at 1000 µg/mL [5] [mm] | zone of inhibition at 1000 µg/mL [6] [mm] | IC50 [7, 12] [µM] | IC50 [8, 13] [µM] | IC50 [9, 14] [µM] | IC50 [10, 15] [µM] | IC50 [11, 16] [µM] | IC50 [9, 17] [µg/mL] | IC50 [10, 18] [µg/mL] | IC50 ([11]; MCF7, read-out: IC50 MCF-7) [µg/mL] | IC50 ([7]; WI-38, 24 h) [µM] | IC50 ([8]; HFL1, 24 h) [µM]
1 | N#CC(C#N)=Cc1ccc(Cl)cc1 | 162 to 163 |  |  |  |  |  |  |  |  |  |  |  |  |  |  |  | 
2 | O=C(O)c1cn(C2CC2)c2cc(N3CCNCC3)c(F)cc2c1=O [Ciprofloxacin, reference compound] |  | 0 | 0 | 0 | 0 | 22 | 25 |  |  |  |  |  |  |  |  |  | 
3 | COc1ccc2c3c(ccc2c1)OC(N)=C(C#N)C3c1ccccc1Cl (stereo not shown) [Compound 4b, 3-Amino-1-(2-chlorophenyl)-8-methoxy-1H-benzo[f]chromene-2-carbonitrile] | 265 to 266 | 13 | 0 | 13 | 0 | 14 | 12 | 171 ± 0.2 | 198.6 ± 0.1 | 6.1 ± 0.2 | 8.6 ± 0.25 | 3.9 ± 0.18 |  |  |  |  | 
4 | COc1ccc2c3c(ccc2c1)OC(N)=C(C#N)C3c1cccc(Cl)c1 (stereo not shown) [Compound 4c, 3-Amino-1-(3-chlorophenyl)-8-methoxy-1H-benzo[f]chromene-2-carbonitrile] | 216 to 217 | 13 | 0 | 15 | 0 | 17 | 12 | 214.1 ± 0.1 | 187.6 ± 0.2 | 3.3 ± 0.5 | 5.5 ± 0.35 | 3.6 ± 0.14 |  |  |  |  | 
5 | COc1ccc2c3c(ccc2c1)OC(N)=C(C#N)C3c1ccc(I)cc1 (stereo not shown) [Compound 4f, 3-Amino-1-(4-iodophenyl)-8-methoxy-1H-benzo[f]chromene-2-carbonitrile] | 227 to 228 | 9 | 0 | 12 | 8 | 15 | 0 |  |  | 39.2 ± 0.2 | 27.8 ± 0.3 | 48.5 ± 0.1 |  |  |  |  | 
6 | COc1ccc2c3c(ccc2c1)OC(N)=C(C#N)C3c1c(F)cccc1F (stereo not shown) [Compound 4h, 3-Amino-1-(2,6-difluorophenyl)-8-methoxy-1H-benzo[f]chromene-2-carbonitrile] | 295 to 296 | 10 | 9 | 13 | 0 | 9 | 0 |  |  | 48.1 ± 0.2 | 33.8 ± 0.12 | 60.2 ± 0.3 |  |  |  |  | 
7 | COc1ccc2c3c(ccc2c1)OC(N)=C(C#N)C3c1cccc(Cl)c1Cl (stereo not shown) [Compound 4i, 3-Amino-1-(2,3-dichlorophenyl)-8-methoxy-1H-benzo[f]chromene-2-carbonitrile] | 256 to 257 | 14 | 0 | 13 | 0 | 8 | 0 | 160.1 ± 0.2 | 154.5 ± 0.1 | 2.8 ± 0.17 | 3.5 ± 0.15 | 2.3 ± 0.01 | 11.1 ± 0.17 | 1.4 ± 0.15 | 0.9 ± 0.01 |  | 
8 | COc1ccc2c3c(ccc2c1)OC(N)=C(C#N)C3c1ccc(Cl)cc1Cl (stereo not shown) [Compound 4j, 3-Amino-1-(2,4-dichlorophenyl)-8-methoxy-1H-benzo[f]chromene-2-carbonitrile] | 285 to 286 | 14 | 0 | 13 | 0 | 8 | 12 | 177.8 ± 0.3 | 180.8 ± 0.3 | 14.1 ± 0.18 | 5.8 ± 0.16 | 2 ± 0.02 |  |  |  |  | 
9 | COc1ccc2c3c(ccc2c1)OC(N)=C(C#N)C3c1cc(Cl)ccc1Cl (stereo not shown) [Compound 4k, 3-Amino-1-(2,5-dichlorophenyl)-8-methoxy-1H-benzo[f]chromene-2-carbonitrile] | 270 to 271 | 15 | 0 | 12 | 0 | 0 | 13 |  |  | 1.8 ± 0.03 | 2.5 ± 0.23 | 6.6 ± 0.4 |  |  |  |  | 
10 | COc1ccc2c3c(ccc2c1)OC(N)=C(C#N)C3c1c(Cl)cccc1Cl (stereo not shown) [Compound 4l] | 313 to 314 | 14 | 0 | 13 | 0 | 8 | 0 |  |  | 2.3 ± 0.02 | 21.3 ± 0.01 | 12.1 ± 0.06 |  |  |  |  | 
11 | COc1ccc2c3c(ccc2c1)OC(N)=C(C#N)C3c1ccc(Cl)c(Cl)c1 (stereo not shown) [Compound 4m, 3-Amino-1-(3,4-dichlorophenyl)-8-methoxy-1H-benzo[f]chromene-2-carbonitrile] | 241 to 242 | 13 | 0 | 14 | 0 | 13 | 10 | 175.5 ± 0.2 | 181 ± 0.1 | 1.8 ± 0.06 | 2.3 ± 0.97 | 1.3 ± 0.21 | 0.7 ± 0.06 | 0.9 ± 0.97 | 0.5 ± 0.21 |  | 
12 | COc1ccc2c3c(ccc2c1)OC(N)=C(C#N)C3c1ccc(OC)c(OC)c1OC (stereo not shown) [Compound 4o, 3-amino-1-(2,3,4-trimethoxyphenyl)-8-methoxy-1H-benzo[f]chromene-2-carbonitrile] | 240 to 241 | 11 | 10 | 12 | 0 | 14 | 12 |  |  | 17.6 ± 0.05 | 35.9 ± 0.02 | 55.3 ± 0.01 |  |  |  |  | 
13 | COc1ccc2c3c(ccc2c1)OC(N)=C(C#N)C3c1cc(OC)c(OC)c(OC)c1 (stereo not shown) [Compound 4p, 3-amino-1-(3,4,5-trimethoxyphenyl)-8-methoxy-1H-benzo[f]chromene-2-carbonitrile] | 258 to 259 | 12 | 11 | 13 | 0 | 15 | 11 |  |  | 106.5 ± 0.1 | 91.4 ± 0.01 | 114.4 ± 0.03 |  |  |  |  | 
14 | COc1ccc2c3c(ccc2c1)OC(N)=C(C#N)C3c1cc(Cl)cc(Cl)c1Cl (stereo not shown) [Compound 4q, 3-amino-1-(2,3,5-trichlorophenyl)-8-methoxy-1H-benzo[f]chromene-2-carbonitrile] | 259 to 260 | 13 | 10 | 13 | 10 | 13 | 12 |  |  | 76.5 ± 0.9 | 107 ± 1.6 | 110.4 ± 0.1 |  |  |  |  | 
15 | C#Cc1cccc(Nc2ncnc3cc(OCCOC)c(OCCOC)cc23)c1 [Erlotinib, N-(3-ethynylphenyl)-6,7-bis(2-methoxyethoxy)-4-quinazolinamine, reference compound] |  |  |  |  |  |  |  |  |  |  |  |  |  |  |  | 28.5 ± 0.2 | 14 ± 1.2
